In ChEMBL document CHEMBL1150621, “Two new triterpenoids from Azadirachta indica and their insecticidal activity” (2002):
Converted amounts (≈) assume the structure as drawn.

System: Anopheles stephensi
Assay: Insecticidal activity against fourth instar larvae of Anopheles stephensi assessed as mortality after 24 hrs
Type: functional

For CC(=O)O[C@@H]1[C@H](O)[C@H]2C(C)(C)C(=O)C=C[C@]2(C)[C@H]2CC[C@]3(C)C(=CC[C@H]3C3=COCC3)[C@]12C, the LC50 was 60 µg/mL (≈ 132 µM).

With CC(=O)O[C@@H]1[C@H](O)[C@H]2C(C)(C)C(=O)C=C[C@]2(C)[C@H]2CC[C@@]3(C)CC(=O)C=C3[C@]12C the LC50 was 43 µg/mL (≈ 107 µM).
